Consider five compounds from paper PMC2853575, “Discovery of Selective Inhibitors Against EBNA1 via High Throughput In Silico Virtual Screening” (PLoS ONE, 2010).

For assay [1], the target named is T1, EBNA1 DNA binding domain (DBD) (Epstein-Barr virus, UniProt P03211).
T1 construct: 246 nM EBNA1 DBD (aa 459–607); hexa-histidine (N); made in house; host or cells: E. coli
Put plainly: Fluorescence polarization (FP) assay of EBNA1-DNA binding. On the procedure: (§1) The EBNA1 DNA binding domain (DBD) (aa 454–607) with a hexa-histidine amino-terminal fusion protein was expressed in E. coli and purified over Ni-NTA agarose according to manufacturers recommendations (Qiagen). The protein was purified from four liters of E. coli to generate ∼20 mg of highly purified EBNA1 protein, estimated to be >90% pure. Purified protein was then dialyzed into a buffer consisting of 200 mM NaCl, 20 mM, Tris-HCl pH 7.4 and 20% Glycerol. Hexa-His tagged Zta was purified from E. coli to near homogeneity, similar to EBNA1 protein. Purified Zta was dialyzed into 500 mM NaCl, Tris-HCl pH 7.4 and 20% Glycerol.
(§2) A reaction mix containing 200 mM NaCl, 20 mM Tris-Cl pH 7.4, 1 mM DTT, 10 ug/mL BSA, 10 nM Cy5 5′ modified EBNA1 (Cy5-GGGTAGCATATGCTATCTagatagcatatgctaccc) or ZTA (Cy5-CACTGACTCATTaatgagtcagtg binding site) oligonucleotide hairpins (purchased from IDT) and 246 nM EBNA1 DBD (aa 459–607) or 300 nM ZTA full length purified recombinant protein was incubated for 20 minutes at room temperature prior to dispensing (BioTek MicroFlo Select) 30 uL to each well of a 384 well black opaque microtiter plate containing the test compounds. Test plates were centrifuged at 165×g prior to fluoresence polarizaration measurements in an Envision Xciter multilable plate reader (Perkin Elmer) using a Cy5 FP 620 excitation and Cy5 FP P/S-pol 688 emission filters.
(§3) To determine IC50s, an 11- point series of 2-fold dilutions in DMSO was performed in duplicate starting at an initial concentration of 50 mM using a Janus Verispan (Perkin Elmer) to create a master plate. From this master plate 0.5 uL was transfered to black opaque 384 well Optiplate (Perkin Elmer) using a Janus MDT (Perkin Elmer) or to microfuge tubes by hand. The plate or microfuge tubes were assayed using the FP and EMSA protocols described above. […] The data was calculated as percentage of EBNA1 binding activity and then plotted versus the log of the concentration of inhibitor. Using GraphPad Prism 5.0 software the plotted data was fit with a Hill-Slope dose-response curve to calculate the relative IC50.

Assay [2] addresses T2, Zta (Epstein-Barr virus, UniProt P03206).
T2 construct: 300 nM ZTA full length purified recombinant protein; Hexa-His; made in house; host or cells: E. coli
Put plainly: Fluorescence polarization (FP) assay of Zta-DNA binding (specificity control). The note with it: for IC50: inhibitor 833 to 7 µM, 2-fold dilutions, 300 nM Zta, read-out: IC50, inhibition of Zta-DNA binding (FP, Fig. 3 panel B). On the procedure: as §1, §2, §3

Assay [3] deals with T1, EBNA1 DNA binding domain (DBD). As to the kind of experiment: EMSA of EBNA1-DNA binding. The note with it: Fig. 3. As to the method: (§4) An EMSA reaction buffer was prepared containing 20% Glycerol, 200 mM NaCl, 20 mM Tris-Cl pH 7.4, 1 mM DTT, 10 ug/mL BSA, 10 nM Cy5 oligonucleotide probe and with or without 246 nM EBNA1 DBD or 300 nM Zta full length purified recombinant protein. This solution was incubated for 20 minutes at room temperature to ensure binding. 30 uL of this solution was dispensed to eppendorf tubes containing 0.5 uL of a test compound in DMSO and mixed. Samples were then loaded onto a 6% polyacrylamide gel in 1/2X Tris-Borate buffer and electrophoresed for 90 min at 170 V. The gel was then scanned for flouresence using at Typhoon Imager (GE Healthcare).
as §3
For orientation: A gel shift assay detects complexes by their altered migration in electrophoresis.

In assay [4] the test system is EBV genome copy number in the Raji Burkitt lymphoma cell line. Put plainly: Raji EBV genome copy number assay. It is filed as cell-based, Epstein-Barr virus. The note with it: six days, Raji cells, real time PCR EBV DNA (DS) relative to actin. As to the method: To further evaluate the ability of these compounds to inhibit the EBNA1 function required for EBV genome replication, we assayed their effect on EBV genome copy number in the Raji Burkitt lymphoma cell line (Fig. 5). Raji cells typically contain ∼100 copies of the EBV genome per cell. […] Therefore, we assessed the effects of HU, SC7, SC11, and SC19 on EBV copy number in Raji cells. Cells were treated with 10 µM SC7, SC11, SC19 or with 100 µM HU for six days. The EBV genome copy number was determined by real time PCR for EBV DNA (DS) relative to cellular actin DNA.
Raji cells (purchased from ATCC) were grown at 5×10^6 cells/ml in RPMI media supplemented with 10% FBS and 10 mM Streptomycin and 10 mm Penicillin. Test compounds were added to achieve a final concentration of 10 uM. Cells were grown at 37°C for three days and then passaged 1∶10 into fresh media with the same concentration of drug. After a second 3-day incubation cells were harvested and the DNA was isolated using ChIP Lysis Buffer followed by sonication, phenol∶chloroform extraction, and ethanol precipitation. Relative EBV DNA copy number was quantified by real-time PCR with primers for cellular actin and the EBV dyad-symmetry region, as described previously.
Background: Quantitative PCR measures a nucleic acid by following its amplification.

Assay [5] concerns the target T2, Zta. Put plainly: EMSA of Zta-DNA binding (specificity control). As to the method:
as §4, §3

Assay [6] has as its system Zta transactivation of BHLF1 promoter. As to the kind of experiment: Zta transcription activation assay (BHLF1-Luciferase reporter) in HEK293T cells. It is filed as cell-based, Epstein-Barr virus. The following applies: for inhibition at 5 µM: human gammaherpesvirus 4, HEK-293T, 48 h, read-out: Inhibition of Zta transactivation. On the procedure: (§5) SC7, SC11, and SC19 were assayed for their ability to inhibit EBNA1 in two cell-based assays. Transcription activation of the EBV Cp promoter by EBNA1 is known to be essential for B-cell immortalization. We therefore assayed the effect of compounds to inhibit EBNA1 transcription activation of Cp using a luciferase reporter-based assay in transiently transfected HEK293T cells (Fig. 4). The luciferase reporter plasmid consisted of a ∼2 kb region of EBV containing both OriP and Cp fused upstream of the luciferase gene. Cotransfection of this plasmid with an EBNA1 expression plasmid produced a 4–5 fold increase in luciferase activity relative to control expression vector lacking EBNA1 (data not shown). Incubation of transfected cells with control vehicle DMSO had no effect on EBNA1 transcription activation. […] As a control for specificity, the same compounds were assayed for their inhibition of Zta transcription activation. Zta is a potent transcription activator of the EBV BHLF1 promoter. We therefore assayed these compounds for their effect on Zta transactivation of BHLF1 promoter fused to luciferase reporter gene.
(§6) HEK293T cells (purchased from ATCC) were seeded in 24-well plates at a density of 50,000 cells/well in DMEM media with 10% FBS. Following an 18 hr incubation at 37°C, cells were transfected using 2 µl of lipofectamine with 0.4 ug/well of a pCMV-FLAG-EBNA1, pCMV-FLAG-ZTA (N362) or a control pCMV-FLAG vector and 0.2 ug/well of either a Cp-Luciferase (EBNA1-reporter) or a HP-Luciferase (Zta-reporter) plasmid. All samples were cotransfected with 100 ng of Renilla expression vector as an internal control for transfection efficiency. After 6 hrs the transfection media was replaced and test compounds were added to achieve a final concentration of 5 uM. Cells were incubated at 37°C for 48 hrs and then harvested. Cells were lysed and prepared for analysis using the Promega Dual Reporter system and luminescence was measured using a Perkin Elmer Wallac Victor^2 1420 Multilabel reader.
(In general: In a reporter assay the amount or activity of a reporter protein is the signal.)

Assay [7] deals with EBNA1 transcription activation of Cp. Put plainly: EBNA1 transcription activation assay (OriP-Cp-Luciferase reporter) in HEK293T cells. The following applies: 5 µM compound, 48 hrs, transfected HEK293T cells. The assay is classed as cell-based, Epstein-Barr virus. As to the method: as §5, §6
Where [8] appears, read: inhibitor 833 to 7 µM, 2-fold dilutions, 246 nM EBNA1 DBD, read-out: IC50, inhibition of EBNA1-DNA binding (FP, Fig. 3 panel A).
Setting [9] is: purified EBNA1 DBD, Cy5 DNA hairpin, read-out: IC50, inhibition of EBNA1-DNA binding in FP assay.

SMILES strings stand for the structures. “And” between values parts separate entries of the source, which are not always exact repeats. Equal entries are not always repeated. Where two headings read alike, the source gives them in different places.

T2 sequence (P03206 whole entry): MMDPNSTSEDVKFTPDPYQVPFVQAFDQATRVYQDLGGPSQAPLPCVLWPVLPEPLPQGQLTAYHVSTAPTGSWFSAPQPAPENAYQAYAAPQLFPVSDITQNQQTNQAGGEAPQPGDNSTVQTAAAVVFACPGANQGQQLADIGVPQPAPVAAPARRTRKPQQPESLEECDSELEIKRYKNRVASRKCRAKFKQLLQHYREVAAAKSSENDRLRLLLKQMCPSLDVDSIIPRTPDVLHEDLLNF
T1 sequence (P03211 459-607): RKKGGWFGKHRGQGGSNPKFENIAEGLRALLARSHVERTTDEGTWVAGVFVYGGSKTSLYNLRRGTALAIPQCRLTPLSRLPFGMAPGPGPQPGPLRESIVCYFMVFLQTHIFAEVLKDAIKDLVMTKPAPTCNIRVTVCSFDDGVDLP

The IC50 is the concentration that gives 50% inhibition. Regarding `CC1CCc2c(sc3nc(SCc4ccc5c(c4)OCO5)nc(N)c23)C1` (centres unmarked) [SC27], the IC50 in assay [1] (setting [8]) turned out to be 546 µM; on Zta [2] it was 193 µM. For the same compound, the “IC50, inhibition of EBNA1-DNA binding in FP assay” value in assay [1] (purified EBNA1 DBD, Cy5 DNA hairpin) was “did not perform well in the FP assay”. Moreover, the “Inhibition of EBNA1-DNA binding in EMSA” value in assay [3] is listed as “highly specific inhibition of EBNA1”.

For the compound `NC(=O)NO` [HU, hydroxyurea, reference compound], in assay [4] (100 µM HU), the “Reduction in EBV genome copy number” value is recorded as roughly 50%.

Usually inhibition stands for the share of the control response that was lost under treatment. For `CC(=O)Nc1ccc(S(=O)(=O)N2c3ccccc3C(C)=CC2(C)C)cc1` [SC11], at Zta [5], the “Inhibition of Zta-DNA binding in EMSA” value is “no significant inhibition”. The half-inhibitory concentration (IC50) in assay [1] (setting [8]) is 92.2 µM; in assay [1] (setting [9]), 20 to 100 µM; on Zta [2] it was 406 µM. The inhibition at 5 µM in assay [6] was roughly 60%. Moreover, the “Inhibition of EBNA1 transcription activation” value in assay [7] is recorded as “completely blocked”. Also, the “Inhibition of Zta-DNA binding in FP assay” value on Zta [2] is “no significant inhibition”. For the same compound, the “Reduction in EBV genome copy number” value in assay [4] (10 µM compound) is on record as 75–90%.

Consider `CC(=O)Oc1ccc(N(C(C)=O)S(=O)(=O)c2ccc3ccccc3c2)cc1Br` [SC7], for which the “Inhibition of Zta-DNA binding in EMSA” value on Zta [5] is reported as “no significant inhibition”. The IC50 was 23.7 µM in assay [1] (setting [8]); 20 to 100 µM and 23 µM in assay [1] (setting [9]); 300 µM at Zta [2]. Further, in assay [6], the inhibition at 5 µM was roughly 60%. For the same compound, the “Inhibition of EBNA1 transcription activation” value in assay [7] was “completely blocked”. Besides, the “Inhibition of Zta-DNA binding in FP assay” value at Zta [2] is recorded as “no significant inhibition”. The “Reduction in EBV genome copy number” value in assay [4] (10 µM compound) was “no apparent effect”.

For the compound `N#CCc1ccc(NC(=O)c2cc(Cl)ccc2NS(=O)(=O)c2cccc3nsnc23)cc1` [SC19], on Zta [5], the “Inhibition of Zta-DNA binding in EMSA” value is “no significant inhibition”. The half-maximal inhibitory concentration (IC50) in assay [1] (setting [8]) is 49.1 µM; in assay [1] (setting [9]), 20 to 100 µM and 49 µM; on Zta [2], roughly 211 µM. In assay [6] (5 µM compound, 48 hrs, transfected HEK293T cells), the “Inhibition of Zta transactivation” value is recorded as “no detectable inhibitory effect”. For the same compound, the “Inhibition of EBNA1 transcription activation” value in assay [7] is listed as “completely blocked”. Further, the “Inhibition of Zta-DNA binding in FP assay” value on Zta [2] was “no significant inhibition”. In assay [4] (10 µM compound), the “Reduction in EBV genome copy number” value is on record as 75–90%.
